The results in this text go back to patent US5304548A, “Bivalent ligands effective for blocking ACAT enzyme for lowering plasma triglycerides and for elevating HDL cholesterol” (The Upjohn Company, priority 1992, dated 1994).

The term IC50 denotes the midpoint of a concentration-inhibition curve. Higher therefore signals a need for much substance.

Test [1] deals with acyl-CoA: cholesterol O-acyltransferase enzyme (ACAT). Kind of test: Inhibition of cellular ACAT (esterification of 3H-cholesterol taken up by cells). The conditions noted are these: for IC50: ACAT inhibition; for ACAT inhibition, result in words: comparison bivalent vs. monomeric / by dose.
The nature of test [2]: Antiatherosclerotic activity, SEA quail on high cholesterol diet, oral compound, arteries analysed after eight weeks. The class given is in vivo, SEA Japanese quail. The conditions noted are these: statistically significant. As to the method: For example, five to six week old, male, SEA quails were placed on a high cholesterol diet with one group orally receiving the subject ACAT inhibitor compound Ia (Table 2). After eight weeks the arteries were removed, cleaned and homogenized. Total cholesterol, free cholesterol and triglycerides were measured.

Test [3] in a line: Antiatherosclerotic activity, Netherland dwarf rabbits on cholesterol-containing atherogenic diet, twelve weeks. The test is classed as in vivo, Netherland dwarf rabbit. The note with it: 50 mg/kg/day. As to the method: In another experiment, ACAT inhibitor compound Ia (Table 2) was administered for twelve weeks at 50 mg/kg/day to Netherland dwarf rabbits that were feed a cholesterol-containing atherogenic diet. During the twelve week period serum cholesterol, triglycerides, and carnitine were monitored. At the end of the study the aortas from the drug treated group and a non-drug treated group were examined for atherosclerosis development.

Test [4] in a line: Hypertriglyceridemia model, female Zucker rats (fafa), compound in chow with cross-over. The class given is in vivo, Zucker rat. The procedure: Female Zucker rats (fafa, 378±3) were maintained on a pelleted chow diet (Purina Chow #5001) or the chow diet which contained Compound Ia (Ia) at a level calculated to deliver 50 mg/kg/day. The Ia containing pellets were prepared from #5001 meal into which the drug had been pre-mixed and subsequently pelletized. […] The plasma was obtained from heparinized blood taken by cardiac puncture and the lipids were measured using an Ektachem DT60 analyzer (Eastman Kodak).

The nature of test [5]: Hypercholesterolemic model, obese female Zucker rats (fa/fa), dose response of plasma lipids after 1 week. The class given is in vivo, Zucker rat. The conditions noted are these: genetically obese Zucker rats. The procedure:
Obese female Zucker rats (fa/fa) weighing 500-600 g were used in the study. These animals are endogenously hypertriglyceridemic and hypercholesterolemic as was described above. Basal plasma triglycerides, cholesterol, and HDL-C levels were determined in individual rats (Ektachem DT 60 Analyzer) which were then randomly assigned to four Compound Ia (Ia) treatment groups (5 mg/kg, n=4; 10 mg/kg, n=4; 20 mg/kg, n=4; 30 mg/kg, n=3). The animals were all individually housed and received Purina Chow pellets (#5002) containing IA at levels calculated to provide the daily doses of Ia described above. After 1 week, all rats were bled by cardiac puncture for determination of plasma triglycerides, cholesterol, and HDL-C. An additional group of rats (n=3) receiving chow alone was run in parallel with the treatment groups as an additional control for the experiment. Each animal acted as its own control since plasma lipid parameters were measured in each animal immediately prior to dosing. The data for triglycerides, cholesterol, and HDL-C were adjusted for this pre-dosing value using a percent change calculation: ((Post-Pre)/Pre)100 . For all 3 measurements, a simple linear model was fit to the percent change value vs log 10 (dose). The logarithmic transformation was used to linearalize the relationship.

Test [6] is described as follows: Plasma triglycerides in rats or rabbits whose triglycerides are within normal limits. The class given is in vivo. The note with it: rats or rabbits with triglycerides within normal limits.

SMILES strings stand for the structures. Values after ≈ are worked out from the molar mass of the structure shown. “Also recorded” adds a separate entry of the source.

As to `COc1c2c(c(OC)c3occc13)OC(=CN1CCC(CCCC3CCN(C=C4Oc5c(c(OC)c6ccoc6c5OC)C4=O)CC3)CC1)C2=O` [Compound III], the entries for the “% ACAT Inhibition” value in test [1] (5 μg/ml), in test [1] (10 μg/ml) and in test [1] (15 μg/ml) were 18%, 29% and 52%, respectively.
Regarding `COc1c2occc2c(OC)c2c(=O)nc(N3CCC(CCCC4CCN(c5nc(=O)c6c(OC)c7ccoc7c(OC)c6o5)CC4)CC3)oc12` [Compound II], the “% ACAT Inhibition” value in test [1] (5 μg/ml) came to 60%; in test [1] (10 μg/ml), 89%; in test [1] (15 μg/ml), 97%. For the same compound, the half-maximal inhibitory concentration (IC50) in test [1] was 1.8 mg/L (≈ 2.57 µM).
Regarding `COc1c2c(c(OC)c3occc13)OC(=CNCCCCCCCCNC=C1Oc3c(c(OC)c4ccoc4c3OC)C1=O)C2=O` [Compound IX], the figures for the “% ACAT Inhibition” value in test [1] (5 μg/ml), in test [1] (10 μg/ml) and in test [1] (15 μg/ml) were 63%, 52% and 51%, respectively. Also, the “ACAT inhibition, result in words” value in test [1] is given as “excellent inhibition over its monomeric counterparts; also recorded: surprisingly good inhibitory activity even at the 5 μg/ml dose”.
Turning to `COc1c2occc2c(OC)c2c(=O)cc(CN3CCC(CCCC4CCN(Cc5cc(=O)c6c(OC)c7ccoc7c(OC)c6o5)CC4)CC3)oc12` [Compound I], the “% ACAT Inhibition” value is given as 68% in test [1] (5 μg/ml), 84% in test [1] (10 μg/ml) and 91% in test [1] (15 μg/ml). Further, the IC50 in test [1] was determined as 4.2 mg/L (≈ 5.78 µM). The “ACAT inhibition, result in words” value in test [1] is on record as “enhanced potency”.
On to `COc1c2occc2c(OC)c2c(=O)cc(CN3CCC(CCC4CCN(Cc5cc(=O)c6c(OC)c7ccoc7c(OC)c6o5)CC4)CC3)oc12` [Compound Ia], for which, in test [2], the “reduction in the accumulation of esterified cholesterol in the arteries” value is “thirty”. Further, the “mean serum cholesterol level” value in test [3] (control exceeded 2200 mg/dl) is 271 mg/dL. For the same compound, the atheromatous lesion development result in test [3] (extensive in controls) is on record as “negligible atheromatous lesion development”. Moreover, the development of hypercholesterolemia entry in test [3] (vs. control) was “less extensive development of hypercholesterolemia”. The compound further gave a mean plasma cholesterol in test [4] (Ia administration, 50 mg/kg/day, from 126±18) of 174 ± 8 mg/dL. Moreover, the “plasma cholesterol, cross-over” value in test [4] (controls crossed over to Ia at day 27, from 118±24, three of four animals increased) is 164 ± 22 mg/dL. For the same compound, the “plasma triglycerides, cross-over” value in test [4] (controls crossed over to Ia, 5 day cross-over period, from 2872±742) is 656 ± 242 mg/dL. Besides, the “plasma cholesterol after withdrawal” value in test [4] (drug withdrawn day 16) is given as “restored essentially to pretreatment levels”. The “plasma triglycerides after withdrawal” value in test [4] (drug withdrawn on day 16, within 1 week) is on record as “essentially returned to pretreatment levels within 1 week”. The “plasma triglycerides, lowest level reached” value in test [4] (from levels as high as 3000 mg/dl) was “less than 300 mg/dl”. For the same compound, the plasma triglycerides in test [4] (within 8 days of addition to diet, 50 mg/kg/day, from group mean 2431±446) is 260 ± 52 mg/dL. In test [5], the “plasma HDL cholesterol, result in words” value was “dose dependent elevation of plasma HDL cholesterol; also recorded: significant linear positive relationship between the % change HDL-C and log 10 (dose); also recorded: ability to elevate HDL-cholesterol”; the “plasma total cholesterol, result in words” value was “without significant changes in plasma total cholesterol; also recorded: hypotriglyceridemic effect can be dissociated from a tendency to elevate plasma cholesterol”; the “plasma triglycerides, result in words” value was “dose-dependent reduction in plasma triglycerides; also recorded: significant negative relationship between % change in plasma triglycerides and log 10 (dose); also recorded: confirmed the triglyceride lowering activity”. Also, the “effect on plasma triglyceride levels” value in test [6] is on record as “very little effect on plasma triglyceride levels”. In test [1] (5 μg/ml), the “% ACAT Inhibition” value was found to be 87%. Also, the “% ACAT Inhibition” value in test [1] (10 μg/ml) is 84%. In addition, in test [1] (15 μg/ml), the “% ACAT Inhibition” value was found to be 75%. The compound further yielded an IC50 in test [1] of 0.8 mg/L (≈ 1.12 µM).
Take `COc1c2occc2c(OC)c2c(=O)cc(CN3CCN(CCN4CCN(Cc5cc(=O)c6c(OC)c7ccoc7c(OC)c6o5)CC4)CC3)oc12` [Compound Ib]: the “% ACAT Inhibition” value in test [1] (5 μg/ml) was found to be 5%; in test [1] (10 μg/ml) it was 6%; in test [1] (15 μg/ml), 2%.
Consider `COc1c2occc2c(OC)c2c(=O)cc(CN3CCN(CC(O)CN4CCN(Cc5cc(=O)c6c(OC)c7ccoc7c(OC)c6o5)CC4)CC3)oc12` [Compound Ic], for which the “% ACAT Inhibition” value in test [1] (5 μg/ml) turned out to be 7%; in test [1] (10 μg/ml), 13%; in test [1] (15 μg/ml), 15%.
On the same counts, the results for `COc1c2occc2c(OC)c2c(=O)cc(CN3CCC(C4CCN(Cc5cc(=O)c6c(OC)c7ccoc7c(OC)c6o5)CC4)CC3)oc12` [Compound Id] are 0%, 0% and 0%.
In the case of `COc1c2c(c(OC)c3c(=O)cc(CN4CCC(CCC5CCN(Cc6cc(=O)c7c(OC)c8c(c(OC)c7o6)OCC8)CC5)CC4)oc13)CCO2` [Compound V, 7,7'-(1,2-Ethanediylbis(4,1-piperidinediylmethylene))bis-2,3-dihydro-4,9-dimethoxy-5H-furo(3.2-g)(1)benzopyran-5-one], the results for the “% ACAT Inhibition” value in test [1] (5 μg/ml), in test [1] (10 μg/ml) and in test [1] (15 μg/ml) were 63%, 73% and 74%, respectively. Besides, in test [1], the IC50 worked out at 3.0 mg/L (≈ 4.19 µM).
For the compound `COc1c2c(c(OC)c3occc13)OC(=CNCCCN1CCN(CCCNC=C3Oc4c(c(OC)c5ccoc5c4OC)C3=O)CC1)C2=O` [Compound VIII], the “% ACAT Inhibition” value is reported as 32% in test [1] (5 μg/ml), 41% in test [1] (10 μg/ml) and 49% in test [1] (15 μg/ml).
Turning to `COc1c2c(c(OC)c3occc13)OC(=CN1CCC(CCCC3CCN(C=C4Oc5c(c(OC)c6ccoc6c5OC)C4=O)CC3)CC1)C2=O` [Compound VII], the “ACAT inhibition, result in words” value in test [1] is listed as “active at the high dose tested (15 μg/ml)”.
In the case of `COc1c2oc([Si](C)(C)C)cc2c(OC)c2c(=O)cc(CN3CCC(CCC4CCN(Cc5cc(=O)c6c(OC)c7cc([Si](C)(C)C)oc7c(OC)c6o5)CC4)CC3)oc12` [Compound VI], the “% ACAT Inhibition” value is 18% in test [1] (5 μg/ml), 29% in test [1] (10 μg/ml) and 52% in test [1] (15 μg/ml).
Turning to `COc1c2occc2c(OC)c2c(=O)cc(CN3CCC(C)CC3)oc12` [IV, reference compound], the results for the “% ACAT Inhibition” value in test [1] (5 μg/ml), in test [1] (10 μg/ml) and in test [1] (15 μg/ml) were 10%, 27% and 39%, respectively. In test [1], the “ACAT inhibition, result in words” value is on record as “reduced percent ACAT inhibition”.
In the case of `COc1c2c(c(OC)c3occc13)OC(=CNC1CCCCC1)C2=O` [reference compound], the entries for the “% ACAT Inhibition” value in test [1] (5 μg/ml), in test [1] (10 μg/ml) and in test [1] (15 μg/ml) were 47%, 55% and 65%, respectively.
On to `COc1c2c(c(OC)c3occc13)OC(=CNCc1ccccc1)C2=O` [reference compound], for which the results for the “% ACAT Inhibition” value in test [1] (5 μg/ml), in test [1] (10 μg/ml) and in test [1] (15 μg/ml) were 50%, 66% and 78%, respectively.
